From patent publication US11123337B2, “4-methylsulfonyl-substituted piperidine urea compounds” (MYOKARDIA, INC., priority 2015, dated 2021) come the findings set out here.

The target in this assay is bovine cardiac myosin (Bos taurus, UniProt Q9BE39). Nature of the assay: Myosin activation assay (PK/LDH-coupled ATPase, bovine cardiac myofibrils). The class given is biochemical. The note with it: AC20 = concentration at which total response is increased by twenty percent. Here is the method: Small molecule agents were assessed for their ability to activate the enzymatic activity of bovine cardiac myosin using a biochemical assay that couples the release of ADP (adenosine diphosphate) from cardiac myosin to an enzymatic coupling system consisting of pyruvate kinase and lactate dehydrogenase (PK/LDH) and monitoring the absorbance decrease of NADH (at 340 nm) as a function of time. PK converts ADP to ATP (adenosine triphosphate) by converting PEP (phosphoenolpyruvate) to pyruvate. Pyruvate is then converted to lactate by LDH by converting NADH (nicotinamide adenine dinucleotide) to NAD (oxidized nicotinamide adenine dinucleotide). The source of cardiac myosin was from bovine heart in the form of skinned myofibrils. Prior to testing small molecule agents, the bovine myofibrils were assessed for their calcium responsiveness and the calcium concentration that achieves either a 50% (pCa50 or pCa=˜6) or <5% (pCa=10) activation of the myofibril system was chosen as the final condition for assessing the activation activity of the small molecule agents. All enzymatic activity was measured in a buffered solution containing 12 mM PIPES (piperazine-N,N′-bis(2-ethanesulfonic acid), 2 mM magnesium chloride at pH 6.8 (PM12 buffer). Final assay conditions were 1 mg/mL of bovine cardiac myofibrils, 0.4 mM PK/LDH, 50 uM ATP, 0.1 mg/mL BSA (bovine serum albumin), 10 ppm antifoam, 2 mM BME, 0.5 mM NADH, 1.5 mM PEP at the desired free calcium concentration required to achieve either 50% or <5% activation of the myofibrils.
bovine cardiac myosin, sequence (Q9BE39 whole entry): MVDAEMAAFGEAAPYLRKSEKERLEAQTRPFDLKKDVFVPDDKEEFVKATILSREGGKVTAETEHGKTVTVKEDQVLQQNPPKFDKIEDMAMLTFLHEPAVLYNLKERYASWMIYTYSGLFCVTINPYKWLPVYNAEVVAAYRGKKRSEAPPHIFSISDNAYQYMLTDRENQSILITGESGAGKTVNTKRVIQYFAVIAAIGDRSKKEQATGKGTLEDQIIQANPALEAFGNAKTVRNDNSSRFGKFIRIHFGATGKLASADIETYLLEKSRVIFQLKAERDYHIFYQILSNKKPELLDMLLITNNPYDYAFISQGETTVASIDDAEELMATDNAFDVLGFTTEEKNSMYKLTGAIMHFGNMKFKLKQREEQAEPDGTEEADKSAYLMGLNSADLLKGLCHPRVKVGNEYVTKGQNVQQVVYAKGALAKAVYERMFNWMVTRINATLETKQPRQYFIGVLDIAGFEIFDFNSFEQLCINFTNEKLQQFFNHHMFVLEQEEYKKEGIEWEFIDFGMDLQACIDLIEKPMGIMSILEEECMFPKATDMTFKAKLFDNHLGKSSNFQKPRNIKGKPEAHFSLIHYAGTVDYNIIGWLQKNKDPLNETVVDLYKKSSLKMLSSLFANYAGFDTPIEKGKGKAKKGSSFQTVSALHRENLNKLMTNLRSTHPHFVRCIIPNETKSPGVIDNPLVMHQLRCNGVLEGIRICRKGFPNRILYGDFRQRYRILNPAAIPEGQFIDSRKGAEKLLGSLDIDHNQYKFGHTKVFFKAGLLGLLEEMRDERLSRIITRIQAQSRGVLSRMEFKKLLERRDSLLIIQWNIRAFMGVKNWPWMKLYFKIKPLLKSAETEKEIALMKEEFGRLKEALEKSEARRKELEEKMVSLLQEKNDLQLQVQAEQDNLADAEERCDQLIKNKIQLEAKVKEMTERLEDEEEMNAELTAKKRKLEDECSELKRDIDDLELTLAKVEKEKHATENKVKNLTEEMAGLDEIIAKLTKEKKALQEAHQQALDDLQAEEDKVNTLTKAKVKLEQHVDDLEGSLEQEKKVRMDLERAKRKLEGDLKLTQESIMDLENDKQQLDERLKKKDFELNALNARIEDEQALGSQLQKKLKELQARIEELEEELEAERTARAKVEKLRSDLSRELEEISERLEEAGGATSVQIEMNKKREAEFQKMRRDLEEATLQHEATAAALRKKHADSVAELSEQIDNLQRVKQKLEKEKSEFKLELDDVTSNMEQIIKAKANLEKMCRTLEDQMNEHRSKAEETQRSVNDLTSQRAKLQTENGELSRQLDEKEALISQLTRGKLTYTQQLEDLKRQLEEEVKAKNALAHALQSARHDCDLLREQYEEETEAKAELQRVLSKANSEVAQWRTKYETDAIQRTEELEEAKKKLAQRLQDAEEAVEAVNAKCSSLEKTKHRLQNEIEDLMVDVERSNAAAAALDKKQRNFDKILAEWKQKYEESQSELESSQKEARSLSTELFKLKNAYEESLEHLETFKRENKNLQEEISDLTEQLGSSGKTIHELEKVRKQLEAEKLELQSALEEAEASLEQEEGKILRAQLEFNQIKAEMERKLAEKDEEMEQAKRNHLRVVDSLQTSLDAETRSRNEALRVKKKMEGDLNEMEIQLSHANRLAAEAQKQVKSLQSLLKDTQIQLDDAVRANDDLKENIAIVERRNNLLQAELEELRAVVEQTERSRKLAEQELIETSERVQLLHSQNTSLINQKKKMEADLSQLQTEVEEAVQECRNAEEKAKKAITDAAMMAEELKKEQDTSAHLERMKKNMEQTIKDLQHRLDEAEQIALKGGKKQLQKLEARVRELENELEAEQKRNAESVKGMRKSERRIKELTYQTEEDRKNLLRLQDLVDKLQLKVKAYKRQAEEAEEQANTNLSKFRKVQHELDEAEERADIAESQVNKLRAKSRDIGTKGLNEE
bovine cardiac myosin, sequence (P85100 whole entry partner): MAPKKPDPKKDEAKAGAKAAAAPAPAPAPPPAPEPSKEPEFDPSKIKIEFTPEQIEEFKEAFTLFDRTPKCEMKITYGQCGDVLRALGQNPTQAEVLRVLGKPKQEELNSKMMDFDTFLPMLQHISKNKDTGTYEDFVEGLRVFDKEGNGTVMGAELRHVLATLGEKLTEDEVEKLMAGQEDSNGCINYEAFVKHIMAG
bovine cardiac myosin, sequence (Q3SZE5 whole entry partner): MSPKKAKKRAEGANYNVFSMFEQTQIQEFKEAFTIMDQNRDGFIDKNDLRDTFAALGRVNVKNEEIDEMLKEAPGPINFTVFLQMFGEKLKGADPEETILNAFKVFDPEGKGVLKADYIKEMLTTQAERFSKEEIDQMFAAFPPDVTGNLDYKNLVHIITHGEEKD
A dilution series of compound was created in DMSO such that the final desired concentration of compound would be achieved in a volume of […] with a fixed DMSO concentration of 3.3% (v/v). Typically a 1 μL of the dilution series was added to a 384 well plate to achieve a 10 point dose response. Following the addition of 14 μL of a solution containing bovine cardiac myofibrils, PK/LDH and a solution of calcium (that achieved the desired activation), the enzymatic reaction was started with the addition of 15 μL of a solution containing ATP, PEP and NADH. The reaction progress was followed in a PerkinElmer Envision plate reader at ambient temperature using clear bottom plates. The plate reader was configured to read absorbance at 340 nm in kinetics mode for 15 minutes. Data were recorded as the slope of the absorbance response to time. The slopes of the absorbance response as a function of time were normalized to slopes on the plate containing DMSO. This normalized rate was then plotted as a function of small molecule concentration and the data was fitted to a four-parameter fit using EXCEL XLfit. The concentration at which the total response is increased by twenty or fifty percent is reported as AC20 or AC50.
On to `O=C(Nc1ccncc1)N1CCC(C2(S(=O)(=O)c3cccc(F)c3)CC2)CC1` [Compound 35, 4-(1-((3-fluorophenyl)sulfonyl)cyclopropyl)-N-(pyridin-4-yl)piperidine-1-carboxamide], for which the “Myosin Activation (AC20)” value was “+++ (+++ represents myosin activation value AC20 < 2 μM)”.
Under `O=C(Nc1cncs1)N1CCC(CS(=O)(=O)c2cccc(F)c2)CC1` [Compound 36, 4-(((3-fluorophenyl)sulfonyl)methyl)-N-(thiazol-5-yl)piperidine-1-carboxamide] stands “+ (+ represents myosin activation value AC20 > 5 μM)”.
Take `O=C(Nc1cncs1)N1CCC(C2(S(=O)(=O)c3cccc(F)c3)CC2)CC1` [Compound 37, 4-(1-((3-fluorophenyl)sulfonyl)cyclopropyl)-N-(thiazol-5-yl)piperidine-1-carboxamide]: the “Myosin Activation (AC20)” value is “+++ (+++ represents myosin activation value AC20 < 2 μM)”.
Under `Cc1ccc(S(=O)(=O)CC2CCN(C(=O)Nc3ccncc3)CC2)cc1` [Compound 38, N-(pyridin-4-yl)-4-(tosylmethyl)piperidine-1-carboxamide] stands “+ (+ represents myosin activation value AC20 > 5 μM)”.
Under `Cc1ccccc1S(=O)(=O)CC1CCN(C(=O)Nc2ccncc2)CC1` [Compound 39, N-(pyridin-4-yl)-4-((o-tolylsulfonyl)methyl)piperidine-1-carboxamide] stands “+ (+ represents myosin activation value AC20 > 5 μM)”; under `O=C(Nc1ccncc1)N1CCC(C2(S(=O)(=O)c3cccc(F)c3)CCC2)CC1` [Compound 42, 4-(1-((3-fluorophenyl)sulfonyl)cyclobutyl)-N-(pyridin-4-yl)piperidine-1-carboxamide], “+++ (+++ represents myosin activation value AC20 < 2 μM)”; under `O=C(Nc1ccnnc1)N1CCC(C2(S(=O)(=O)c3cccc(F)c3)CCC2)CC1` [Compound 43, 4-(1-((3-fluorophenyl)sulfonyl)cyclobutyl)-N-(pyridazin-4-yl)piperidine-1-carboxamide], “+++ (+++ represents myosin activation value AC20 < 2 μM)”.
Under `O=C(Nc1cnns1)N1CCC(C(F)(F)S(=O)(=O)c2cccc(F)c2)CC1` [Compound 44, 4-(difluoro((3-fluorophenyl)sulfonyl)methyl)-N-(1,2,3-thiadiazol-5-yl)piperidine-1-carboxamide] stands “+ (+ represents myosin activation value AC20 > 5 μM)”.
In the case of `CC(F)(C1CCN(C(=O)Nc2cnns2)CC1)S(=O)(=O)c1cccc(F)c1` (stereo not shown) [Compound 45, 4-(1-fluoro-1-((3-fluorophenyl)sulfonyl)ethyl)-N-(1,2,3-thiadiazol-5-yl)piperidine-1-carboxamide], the “Myosin Activation (AC20)” value was “+++ (+++ represents myosin activation value AC20 < 2 μM)”.
For the compound `O=C(Nc1ccnnc1)N1CCC(C(F)(F)S(=O)(=O)c2ccc(OC(F)(F)F)cc2)CC1` [Compound 48, 4-(difluoro((4-(trifluoromethoxy)phenyl)sulfonyl)methyl)-N-(pyridazin-4-yl)piperidine-1-carboxamide], the “Myosin Activation (AC20)” value was “++ (++ represents myosin activation value AC20 from 2 μM-5 μM)”.
Under `O=C(Nc1ccnnc1)N1CCC(C(F)(F)S(=O)(=O)c2cccc(C(F)(F)F)c2)CC1` [Compound 49, 4-(difluoro((3-(trifluoromethyl)phenyl)sulfonyl)methyl)-N-(pyridazin-4-yl)piperidine-1-carboxamide] stands “++ (++ represents myosin activation value AC20 from 2 μM-5 μM)”.
On to `Cc1ccc(S(=O)(=O)C(F)(F)C2CCN(C(=O)Nc3ccnnc3)CC2)cn1` [Compound 50, 4-(difluoro((6-methylpyridin-3-yl)sulfonyl)methyl)-N-(pyridazin-4-yl)piperidine-1-carboxamide], for which the “Myosin Activation (AC20)” value is recorded as “++ (++ represents myosin activation value AC20 from 2 μM-5 μM)”.
Under `Cc1cc(C#N)ccc1S(=O)(=O)C(F)(F)C1CCN(C(=O)Nc2ccnnc2)CC1` [Compound 52, 4-(((4-cyano-2-methylphenyl)sulfonyl)difluoromethyl)-N-(pyridazin-4-yl)piperidine-1-carboxamide] stands “++ (++ represents myosin activation value AC20 from 2 μM-5 μM)”; under `Cc1ccccc1S(=O)(=O)C(C)(F)C1CCN(C(=O)Nc2ccnnc2)CC1` (stereo not shown) [Compound 53, 4-(1-fluoro-1-(o-tolylsulfonyl)ethyl)-N-(pyridazin-4-yl)piperidine-1-carboxamide], “+++ (+++ represents myosin activation value AC20 < 2 μM)”.
For the compound `N#Cc1ccccc1S(=O)(=O)C(F)(F)C1CCN(C(=O)Nc2ccnnc2)CC1` [Compound 54, 4-(((2-cyanophenyl)sulfonyl)difluoromethyl)-N-(pyridazin-4-yl)piperidine-1-carboxamide], the “Myosin Activation (AC20)” value was “++ (++ represents myosin activation value AC20 from 2 μM-5 μM)”.
`COc1ncccc1S(=O)(=O)C(C)(F)C1CCN(C(=O)Nc2ccnnc2)CC1` (stereo not shown) [Compound 55, 4-(1-fluoro-1-((2-methoxypyridin-3-yl)sulfonyl)ethyl)-N-(pyridazin-4-yl)piperidine-1-carboxamide]: the “Myosin Activation (AC20)” value is given as “++ (++ represents myosin activation value AC20 from 2 μM-5 μM)”.
In the case of `CC(F)(C1CCN(C(=O)Nc2ccnnc2)CC1)S(=O)(=O)c1ccccc1C#N` (stereo not shown) [Compound 56, 4-(1-((2-cyanophenyl)sulfonyl)-1-fluoroethyl)-N-(pyridazin-4-yl)piperidine-1-carboxamide], the “Myosin Activation (AC20)” value is given as “+++ (+++ represents myosin activation value AC20 < 2 μM)”.
Under `CC(F)(C1CCN(C(=O)Nc2ccnnc2)CC1)S(=O)(=O)c1ccccc1C(F)(F)F` (stereo not shown) [Compound 57, 4-(1-fluoro-1-((2-(trifluoromethyl)phenyl)sulfonyl)ethyl)-N-(pyridazin-4-yl)piperidine-1-carboxamide] stands “++ (++ represents myosin activation value AC20 from 2 μM-5 μM)”; under `Cn1nccc1-c1ccc(S(=O)(=O)C(F)(F)C2CCN(C(=O)Nc3ccnnc3)CC2)cc1` [Compound 58, 4-(difluoro((4-(1-methyl-1H-pyrazol-5-yl)phenyl)sulfonyl)methyl)-N-(pyridazin-4-yl)piperidine-1-carboxamide], “+ (+ represents myosin activation value AC20 > 5 μM)”; under `O=C(Nc1ccnnc1)N1CCC(C(F)(F)S(=O)(=O)c2ccc(C3CC3)nc2)CC1` [Compound 60, 4-(((6-cyclopropylpyridin-3-yl)sulfonyl)difluoromethyl)-N-(pyridazin-4-yl)piperidine-1-carboxamide], “++ (++ represents myosin activation value AC20 from 2 μM-5 μM)”.
Consider `COc1c(F)cccc1S(=O)(=O)C(F)(F)C1CCN(C(=O)Nc2ccnnc2)CC1` [Compound 61, 4-(difluoro((3-fluoro-2-methoxyphenyl)sulfonyl)methyl)-N-(pyridazin-4-yl)piperidine-1-carboxamide], for which the “Myosin Activation (AC20)” value is recorded as “++ (++ represents myosin activation value AC20 from 2 μM-5 μM)”.
Under `COc1ccccc1S(=O)(=O)C(F)(F)C1CCN(C(=O)Nc2ccnnc2)CC1` [Compound 62, 4-(difluoro((2-methoxyphenyl)sulfonyl)methyl)-N-(pyridazin-4-yl)piperidine-1-carboxamide] stands “+ (+ represents myosin activation value AC20 > 5 μM)”.
